The record followed here is US9877962B2, “Piperazinyl derivatives for the treatment of cancer” (priority 2011, dated 2018).

The nature of series [1]: Pharmacokinetic parameters in mice. It is filed as in vivo, balb/c mice. The following applies: for AUC(0-inf) / AUC(0-t) / Cmax / half-life: mouse, balb/c mice, intravenous route, 10 mg/kg, plasma; for half-life: read-out: t½ (converted). On the procedure: The pharmacokinetic behaviour of compounds is a pre-requisite for reasonable use thereof in in vivo experimentation. The compounds were given in DMSO solution via intravenous route (IV) or oral route (PO) to balb/c mice. Blood samples were taken at times ranging from 5 minutes to 6 hours, the plasmas were collected and the concentration of the compounds in each sample was assayed by LC/MS/MS. The data obtained allowed the plotting of time-concentration curves and determination of fundamental parameters such as plasma half-life of the compound (T½), area under curve at a given time (AUCt) and the maximum concentration obtained (Cmax).

For another series, the system named is HL-60. The series is described as follows: Cytotoxicity test (ViaLight Plus cell proliferation) on HL-60. It is filed as cell-based, human. Conditions: 72 hours' incubation, cell viability vs 0.5% DMSO control; for IC50: Homo sapiens, HL-60, 72 h, read-out: EC50 HL-60. An excerpt: (§1) The effects of the compounds of the invention on the proliferation of cancer cells were studied on different human cancer cell lines of different tissue origin (MCF-7: breast cancer, MCF-7/adr adriamycin-resistant breast cancer, HL-60: acute promyelocytic leukaemia, HL-60/R10: doxorubicin-resistant acute promyelocytic leukaemia, HT29: colon adenocarcinoma, Mia Paca2: pancreatic tumour, Panc-1: pancreatic exocrine tumour, SK-OV-3: cisplatin- and adriamycin resistant ovarian cancer). The cancer cells used for this study were incubated at 37° C. in the presence of one of the compounds of the invention added to the culture medium at different concentrations.
(§2) The cancer cell lines were obtained from ATCC (American Type Culture Collection) for MCF-7, from Hôpital de la Pitié Salpetrière for MCF-7/adr and from Oncodesign (Dijon, France) for HL-60, HL-60/R10, HT29, MiaPaCa2, Panc-1 and SK-OV-3. They were cultured in RPMI 1640 medium containing 2 mM L-Glutamine supplemented with 10% foetal calf serum (Lonza; Verviers, Belgium). All the cell lines were held in culture at 37° C. in a humid atmosphere containing 5% CO2. Cell proliferation was assessed using the ViaLight® Plus Assay Kit (Lonza; Verviers, Belgium) following the manufacturer's instructions. The cells were seeded in 96-well culture plates compatible with luminescence read-off (white plates with transparent bottom) in a proportion of 5 000 to 10 000 cells per well in 100 μl of culture medium. After a pre-incubation time of 24 hours at 37° C., the compounds of the invention dissolved in dimethylsulfoxide (DMSO) were individually added to each well in a proportion of 0.5 μl per well. After 72 hours' incubation at 37° C. in a humid atmosphere containing 5% CO2, 50 μl of lysis buffer were added to each well and 15 minutes later 100 μl of ATP measuring agent were added. The plates were read under a luminometer to evaluate cell viability. The data obtained was processed by computer to obtain the EC50 value i.e. the concentration value of each of the compounds which induces 50% cell viability compared with a control value (0.5% DMSO alone).

The next series has as its system HL-60/R10. The series is described as follows: Cytotoxicity test (ViaLight Plus cell proliferation) on HL-60/R10. Type of series: cell-based, human. The following applies: doxorubicin-resistant line, 72 hours' incubation, cell viability vs 0.5% DMSO control, read-out: EC50 HL60/R10; for IC50: Homo sapiens, HL-60, 72 h.
Text: as §1, §2

For another series, the system named is MCF-7. The series is described as follows: Cytotoxicity test (ViaLight Plus cell proliferation) on MCF-7. It is filed as cell-based, human. The following applies: 72 hours' incubation, cell viability vs 0.5% DMSO control; for IC50: Homo sapiens, MCF7, 72 h, read-out: EC50 MCF-7.
Text: as §1, §2

The subject of a further series is MCF-7/adr. The series is described as follows: Cytotoxicity test (ViaLight Plus cell proliferation) on MCF-7/adr. Type of series: cell-based, human. Conditions: adriamycin-resistant line, 72 hours' incubation, cell viability vs 0.5% DMSO control; for IC50: Homo sapiens, NCI/ADR-RES, 72 h, read-out: EC50 MCF-7/adr.
Text: as §1, §2

In the next series the test system is HT29. The series is described as follows: Cytotoxicity test (ViaLight Plus cell proliferation) on HT29. Type of series: cell-based, human. Conditions: 72 hours' incubation, cell viability; for IC50: Homo sapiens, HT-29, read-out: EC50 HT29.
Text: as §1, §2

The subject of another series is Mia PaCa2. The series is described as follows: Cytotoxicity test (ViaLight Plus cell proliferation) on Mia PaCa2. Type of series: cell-based, human. The following applies: 72 hours' incubation, cell viability; for IC50: Homo sapiens, MIA PaCa-2, read-out: EC50 Mia PaCa2.
Text: as §1, §2

Another series has as its system Panc-1. The series is described as follows: Cytotoxicity test (ViaLight Plus cell proliferation) on Panc-1. Conditions: 72 hours' incubation, cell viability; for IC50: Homo sapiens, PANC-1, read-out: EC50 Panc-1. It is filed as cell-based, human.
Text: as §1, §2

The next series concerns SK-OV-3. The series is described as follows: Cytotoxicity test (ViaLight Plus cell proliferation) on SK-OV-3. It is filed as cell-based, human. The following applies: cisplatin- and adriamycin resistant line, 72 hours' incubation, cell viability; for IC50: Homo sapiens, SK-OV-3, read-out: EC50 SK-OV-3.
Text: as §1, §2

In general, AUC(0-inf) refers to the area under the concentration-time curve extrapolated to infinity. Read a high AUC(0-inf) as high exposure. As usually defined, the AUC(0-t) is exposure summed from dosing to a finite time, without extrapolation to infinity. One may read the Cmax as the highest concentration seen after dosing. Turning to `Cc1cc(Oc2ccccc2)ccc1N(C(=O)CCl)C(C(=O)N1CC(C)NC(C)C1)c1cccs1.Cl` (stereo not drawn), in series [1], the AUC(0-inf) came out at 3840 ng·h/mL, the AUC(0-t) was determined as 3290 ng·h/mL, the Cmax was 3800 ng/mL and the half-life was 2.64 h.
For `Cc1cc(Oc2ccccc2)ccc1N(C(=O)CCl)C(C(=O)N1CCN[C@@H](C)C1)c1cccs1.Cl` (stereo partly drawn), in series [1], the AUC(0-inf) came out at 2060 ng·h/mL, the AUC(0-t) was determined as 1680 ng·h/mL, the Cmax came out at 1420 ng/mL and the half-life was 2.47 h.
In the case of `CC(C)[C@H]1CN(C(=O)C(c2ccc(F)cc2)N(C(=O)CCl)c2ccc(Oc3ccccc3)cc2)CCN1` (single isomer, unassigned) [I-3 dia2], the EC50 in the series with HL-60 is 504 nM; in the series with HL-60/R10 it was 2 nM; with MCF-7 it was 301 nM; with MCF-7/adr, 9 nM. Further, the IC50 came out at 1 nM with HT29, 2 nM with Mia PaCa2, 1 nM in the series on Panc-1 and 1 nM in the series on SK-OV-3.
With `Cc1cc(Oc2ccccc2)ccc1N(C(=O)CCl)C(C(=O)N1CCN[C@@H](C(C)C)C1)c1ccc(F)cc1` (single isomer, unassigned) [I-7 dia2], the EC50 is 1940 nM in the series with HL-60, 26 nM in the series on HL-60/R10, 1950 nM in the series on MCF-7 and 98 nM with MCF-7/adr. In addition, the IC50 is 8 nM with HT29, 13 nM with Mia PaCa2, 5 nM in the series with Panc-1 and 7 nM in the series on SK-OV-3.
Take `Cc1cc(Oc2ccccc2)ccc1N(C(=O)CCl)C(C(=O)N1CCN[C@@H](C)C1)c1cccs1` (single isomer, unassigned) [I-43 dia2]: the IC50 with HL-60 was determined as 1890 nM; in the series on HL-60/R10, 20 nM; in the series on MCF-7, 1420 nM; in the series on MCF-7/adr, 126 nM; in the series with HT29 it was 10 nM; in the series with Mia PaCa2, 18 nM. Moreover, the IC50 with Panc-1 was found to be 7 nM; in the series on SK-OV-3 it was 9 nM. In addition, in series [1] (IV 10 mg/kg or PO 30 mg/kg, FIG. 1), the “bioavailability in a mouse” value was “good bioavailability”.
As to `Cc1cc(Oc2ccccc2)ccc1N(C(=O)CCl)C(C(=O)N1CCN[C@@H](C(C)C)C1)c1cccs1` (single isomer, unassigned; dia2) [I-46 dia2], the EC50 in the series on HL-60 turned out to be 449 nM; in the series with HL-60/R10 it was 10 nM; in the series with MCF-7, 1180 nM; in the series on MCF-7/adr, 58 nM; in the series with HT29 it was 6 nM; with Mia PaCa2, 10 nM. Besides, the EC50 in the series on Panc-1 is 4 nM; with SK-OV-3, 6 nM.
As to `CC(C)[C@H]1CN(C(=O)C(c2cccs2)N(C(=O)CCl)c2cccc(C(F)(F)F)c2)CCN1` (single isomer, unassigned; dia2) [I-50 dia2], the EC50 in the series on HL-60 is 841 nM; in the series with HL-60/R10 it was 8 nM; in the series on HT29, 9 nM; in the series with Mia PaCa2, 2200 nM; in the series with Panc-1, 9 nM; with SK-OV-3, 11 nM.
`CC1CN(C(=O)C(c2cccs2)N(C(=O)CCl)c2cccc(C(F)(F)F)c2)CC(C)N1C(=O)OCc1ccccc1` (stereo not drawn) [Example I-29]: the IC50 with HL-60 was 939 nM; with HL-60/R10 it was 38 nM; in the series with MCF-7, 1030 nM; in the series with MCF-7/adr, 54 nM.
For `CC1CN(C(=O)C(c2cccs2)N(C(=O)CCl)c2ccc(Oc3ccccc3)cc2)CC(C)N1` (stereo not drawn) [Example I-30] the same measures were 202 nM, 10 nM, 1010 nM and 44 nM.
As to `CC1CN(C(=O)C(c2cccs2)N(C(=O)CCl)c2ccc(Oc3ccccc3)cc2)CC(C)N1C(=O)OCc1ccccc1` (stereo not drawn) [Example I-31], the IC50 in the series with HL-60 is 766 nM; in the series with HL-60/R10, 64 nM; in the series on MCF-7, 2500 nM; in the series with MCF-7/adr, 89 nM.
Consider `CC1CN(C(=O)C(c2cccs2)N(C(=O)CCl)c2ccc(Oc3ccccc3)cc2)CC(C)N1C(=O)OC(C)(C)C` (stereo not drawn) [Example I-32], for which the IC50 came to 175 nM in the series on HL-60, 78 nM in the series on HL-60/R10, 2500 nM with MCF-7 and 58 nM in the series on MCF-7/adr.
In the case of `O=C(C(c1cccs1)N(C(=O)CCl)c1ccc(Oc2ccccc2)cc1)N1CCN2CCC[C@H]2C1` (stereo partly drawn) [Example I-34], the IC50 was found to be 1120 nM in the series on HL-60, 30 nM in the series with HL-60/R10, 1780 nM in the series on MCF-7 and 100 nM with MCF-7/adr.
As for `O=C(C(c1cccs1)N(C(=O)CCl)c1ccc(Oc2ccccc2)cc1)N1CC2CC1CN2` (stereo not drawn) [Example I-35], the IC50 with HL-60 was found to be 300 nM; with HL-60/R10, 249 nM; with MCF-7, 632 nM; in the series with MCF-7/adr it was 863 nM.
Consider `C[C@@H]1CN(C(=O)C(c2cccs2)N(C(=O)CCl)c2ccc(Oc3ccccc3)cc2)CCN1C(=O)OCc1ccccc1` (stereo partly drawn) [Example I-36], for which the IC50 is 372 nM with HL-60, 28 nM in the series with HL-60/R10, 2500 nM with MCF-7 and 24 nM with MCF-7/adr.
For `Cc1cc(Oc2ccccc2)ccc1N(C(=O)CCl)C(C(=O)N1CCN(C(=O)OCc2ccccc2)[C@H](C)C1)c1cccs1` (stereo partly drawn) [Example I-37] the same measures were 967 nM, 154 nM, 2500 nM and 156 nM.
As to `Cc1c(N(C(=O)CCl)C(C(=O)N2C[C@@H](C)N[C@@H](C)C2)c2cccs2)cccc1C(F)(F)F` (stereo partly drawn) [Example I-38], the IC50 worked out at 2500 nM with HL-60, 189 nM with HL-60/R10, 2500 nM in the series with MCF-7 and 851 nM in the series with MCF-7/adr.
As to `CC[C@H]1CN(C(=O)C(c2cccs2)N(C(=O)CCl)c2ccc(Oc3ccccc3)cc2)CCN1` (stereo partly drawn) [Example I-39], the IC50 turned out to be 1810 nM in the series with HL-60, 9 nM in the series with HL-60/R10, 776 nM in the series with MCF-7 and 52 nM in the series with MCF-7/adr.
For the compound `Cc1cc(Oc2ccccc2)ccc1N(C(=O)CCl)C(C(=O)N1CCNCC1)c1cccs1.Cl` (stereo not drawn) [reference compound], in [1], the AUC(0-inf) amounted to 1320 ng·h/mL, the exposure AUC(0-t) came out at 1280 ng·h/mL, the Cmax was 1470 ng/mL and the half-life was 1.38 h.
For the compound “tert-butyl ester of 4-[2-[(2-chloro-acetyl)-(4-phenoxy-phenyl)-amino]-2-(4-fluoro-phenyl)-acetyl]-(S)-2-isopropyl-piperazine-1-carboxylic acid [I-1 dia2]”, the EC50 with HL-60 was found to be 824 nM; in the series with HL-60/R10, 23 nM; in the series on MCF-7, 1300 nM; in the series on MCF-7/adr, 39 nM.
For “tert-butyl ester of 4-[-2-[(2-chloro-acetyl)-(4-phenoxy-phenyl)-amino]-2-(4-fluoro-phenyl)-acetyl]-(R)-2-isopropyl-piperazine-1-carboxylic acid [I-2 dia1]” the same measures were 728 nM, 40 nM, 2090 nM and 49 nM.
